Test results reported in paper PMC3247180, “Polyamidoamine (PAMAM) dendrimer conjugate specifically activates the A3 adenosine receptor to improve post-ischemic/reperfusion function in isolated mouse hearts” (BMC Pharmacology, 2011).
Entries after “also recorded” stand apart in the source; their conditions may differ.

Assays:
mA3AR [1] = target: T1, mA3AR (Mus musculus, UniProt Q61618); assay: Radioligand ([125I]I-AB-MECA) competition binding, mA3AR
T1 construct: expressed in transfected cells; host or cells: HEK293
T1 sequence (Q61618 1-319): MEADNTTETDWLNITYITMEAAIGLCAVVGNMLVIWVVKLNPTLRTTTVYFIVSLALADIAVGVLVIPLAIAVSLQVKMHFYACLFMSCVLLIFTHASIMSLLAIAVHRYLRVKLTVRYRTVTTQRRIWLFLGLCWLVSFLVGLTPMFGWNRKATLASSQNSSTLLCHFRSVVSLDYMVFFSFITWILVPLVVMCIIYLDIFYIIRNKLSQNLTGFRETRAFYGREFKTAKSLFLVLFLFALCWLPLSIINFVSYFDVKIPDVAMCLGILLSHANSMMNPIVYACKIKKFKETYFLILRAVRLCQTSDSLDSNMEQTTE
Procedure: (§1) The competition assays were performed as previously published. Briefly, to prepare the membranes, HEK293 cells stably expressing recombinant mARs were harvested and homogenized in 10 mM Na^+-HEPES buffer (pH 7.4) with 10 mM EDTA and 0.1 mM benzamidine. The cell lysates were centrifuged (35,000 × g for 25 min; 4°C), and the pellets were resuspended in 10 mM Na^+-HEPES buffer (pH 7.4) with 1 mM EDTA and 0.1 mM benzamidine. The suspensions were homogenized and centrifuged again (35,000 × g for 25 min; 4°C). The resultant pellets were re-suspended in buffer containing 10% sucrose and stored at -80°C until use. For the radioligand binding assays, 50 μg cell membranes (100 μL) were incubated in 10 mM Na^+-HEPES buffer (pH 7.4) with 5 mM MgCl2, 5 U/mL ADA, and [^125I]I-AB-MECA as radioligand. The competing ligands of interest were added at various concentration ranges. The IC50 values were calculated using nonlinear regression analysis by fitting the data to the following equation: binding=nonspecific binding+total binding-nonspecific binding∕1+10^x-logIC50 Inhibition constant (Ki) values were calculated using the Cheng-Prusoff equation [36]. The concentration of MRS5246 reflected the concentration of the dendrimeric complex, not the individual ligand moieties. Therefore, all binding Ki values of this dendrimer are to be considered as Kiapp values.

mA1AR [2] = target: T2, mA1AR (Mus musculus, UniProt Q60612); assay: Radioligand ([125I]I-AB-MECA) competition binding, mA1AR; details: recombinant mAR on HEK293 cell membranes, Kiapp for the dendrimer conjugate, read-out: mA1AR, Ki or Kiapp
T2 construct: expressed in transfected cells; host or cells: HEK293
T2 sequence (Q60612 1-326): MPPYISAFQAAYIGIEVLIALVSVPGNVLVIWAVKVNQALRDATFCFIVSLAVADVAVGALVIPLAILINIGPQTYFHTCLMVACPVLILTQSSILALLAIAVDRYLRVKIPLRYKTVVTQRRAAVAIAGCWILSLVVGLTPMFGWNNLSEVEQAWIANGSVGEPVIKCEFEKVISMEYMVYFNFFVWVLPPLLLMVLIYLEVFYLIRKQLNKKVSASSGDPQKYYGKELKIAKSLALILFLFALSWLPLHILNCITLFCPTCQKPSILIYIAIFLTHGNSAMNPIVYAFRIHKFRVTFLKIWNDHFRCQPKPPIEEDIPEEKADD
Procedure: as §1

mA3AR [3] = target: T1, mA3AR; assay: cAMP functional assay (inhibition of forskolin-stimulated cAMP production), mA3AR in HEK293 cells; format: cell-based
Procedure: (§2) The assays of cAMP (3',5'-cyclic adenosine monophosphate) were performed utilizing a modified protocol published by Nordstedt and colleagues, whereby cAMP content was determined by displacement of [^3H]cAMP binding to regulatory subunits of protein kinase A in bovine adrenal extracts. HEK293 cells heterologously expressing the mA3AR were prepared by plating 2.5 × 10^5 cells per well in 24-well plates and cultured overnight in complete media (DMEM with 10% fetal bovine serum/PenStrep/0.4 mg/mL G418) at 37°C. The cells were washed with DMEM/25 mM HEPES (pH 7.4) followed by incubation in DMEM/25 mM HEPES containing 20 μM Ro 20-1274 (phosphodiesterase inhibitor), 1 U/mL ADA and a combination of two selective A2BAR antagonists (300 nM CVT-6883 and 300 nM PSB603) at 37°C for 15 min. Forskolin (20 μM) to induce cAMP production and the test compounds of interest were then simultaneously added. A concentration range of ligands or dendrimer conjugates was tested in triplicate to inhibit cAMP production via activation of A1 or A3 ARs. After incubation at 37°C for 15 min, the media was aspirated, and the cells were lysed with 200 μL ice cold 0.1 M HCl on a shaker at 4°C for 30 min. The lysates were collected and cAMP levels in the acid extract were determined by competitive binding assays as follows. Each lysate sample and cAMP standard were diluted in 0.1 M HCl and subsequently transferred to polypropylene tubes (100 μL). [^3H]cAMP (12,000 cpm/100 μL water/tube) and protein extract from bovine adrenal tissue were then added (240 μg adrenal protein/tube at a concentration of 0.6 μg/μL, in the binding protein buffer: 100 mM Tris-HCl, 250 mM NaCl, 10 mM EDTA, 0.1% 2-mercaptoethanol, pH 8.0), with the extract isolated from bovine adrenal glands as described by Nordstedt, et al. to provide the cAMP binding substrate. The samples were incubated at 4°C for 2.5 hours and harvested through GF/C glass microfiber filters using a cell harvester (Brandel, Gaithersburg, MD) and counted in scintillation cocktail. […]

mA1AR [4] = target: T2, mA1AR; assay: cAMP functional assay (inhibition of forskolin-stimulated cAMP production), mA1AR in HEK293 cells; format: cell-based
Procedure: as §2, with “After incubation at 37°C for 15 min, the media was aspirated, and the cells were lysed with 200 μL ice cold 0.1 M HCl on a shaker at 4°C for 30 min.” left out, “Each lysate sample and cAMP standard were diluted in 0.1 M HCl and subsequently transferred to polypropylene tubes (100 μL). [^3H]cAMP (12,000 cpm/100 μL water/tube) and protein extract from bovine adrenal tissue were then added (240 μg adrenal protein/tube at a concentration of 0.6 μg/μL, in the binding protein buffer: 100 mM Tris-HCl, 250 mM NaCl, 10 mM EDTA, 0.1% 2-mercaptoethanol, pH 8.0), with the extract isolated from bovine adrenal glands as described by Nordstedt, et al. to provide the cAMP binding substrate.” left out

isolated mouse hearts = assay: Langendorff-perfused isolated mouse heart model of I/R (wild-type)
Procedure: MRS5246 and MRS5233 were tested for effects on functional improvement in isolated mouse hearts subjected to global ischemia and reperfusion. The agonists were infused into the coronary circulation of the hearts for 10 min immediately before 20 min of global ischemia. The functional recovery parameters (left ventricular developed pressure [LVDP], rate of contraction [dP/dtmax], rate of relaxation [dP/dtmin], and coronary flow [CF; mL/min/g]) of the hearts were assessed throughout reperfusion and after 45 min of reperfusion and compared to those of control hearts.
Isolated mouse heart experiments were performed as described previously. In brief, hearts were isolated from C57Bl/6J male mice and cannulated via the aorta and perfused in a retrograde fashion by Krebs-Henseleit buffer. Pressure measurements were obtained via a fluid-filled balloon inserted into the left ventricle via the mitral valve and connected to a pressure transducer. The hearts were immersed in warmed perfusion buffer to maintain the hearts at 37°C, and the balloons were inflated to achieve constant end-diastolic pressures of 5 to 10 mm Hg.
The hearts were perfused for 20 min to achieve stabilization and then paced at 420 beats/min for baseline functional measurements. Global ischemia was achieved by closing an in-line stopcock to stop perfusion for 20 min followed by 45 min of reperfusion by re-opening the stopcock. To examine the effect of the ligands and dendrimer conjugates on functional recovery, the hearts were perfused with buffer containing the indicated concentrations of compounds for 10 min immediately before ischemia.
All data are reported as means ± S.E.M. Functional recovery data in the isolated heart studies were analyzed by two-way repeated measures ANOVA. […] Left ventricular functional recoveries at 45 min of reperfusion were compared using one-way analysis of variance followed by Student's t test with the Bonferroni correction or an unpaired Student's t test, as appropriate. P < 0.05 was statistically significant.

hA3AR = details: ref [13],[14]; cited from earlier work
hA2AAR = target: hA2AAR; set-up: method as in PMID 19499950, PMID 20036562; details: ref [13],[14]; cited from earlier work
hA1AR = test system: hA1AR; set-up: method as in PMID 19499950, PMID 20036562; details: at 10 μM; ref [13],[14]; cited from earlier work

Ki (mA3AR [1]; [125I]I-AB-MECA, recombinant mAR on HEK293 cell membranes, Kiapp for the dendrimer conjugate, read-out: mA3AR, Ki or Kiapp): 0.00394 ± 0.00031 µM | fold greater affinity at mA3AR than at hA3AR (mA3AR [1]; mouse Ki vs reported human Ki): 5.7 fold | Selectivity (A1 /A3) (mA3AR [1]; mouse receptors, ratio of binding Ki): 169-fold | Ki (mA1AR [2]): 0.665 ± 0.07 µM | agonist efficacy in cAMP assay (mA3AR [3]; HEK293 cells overexpressing recombinant mARs): full agonists | IC50 (mA3AR [3]; HEK293 cells, forskolin-stimulated): 0.004 µM | EC50 (mA3AR [3]; HEK293 cells, forskolin-stimulated, as printed in Figure 3, read-out: EC50, cAMP functional assay, mouse A3AR): 0.004 ± 0.0003 µM | activity at the mA1AR in cAMP assay (mA1AR [4]; at 100 μM): inactive | inhibition of cAMP production at the A1AR (mA1AR [4]; up to 0.1 mM): lacked inhibition
SMILES: CNC(=O)[C@@]12C[C@@H]1[C@@H](n1cnc3c(NCc4cccc(Cl)c4)nc(C#CCCCCc4cn(CCNC(C)=O)nn4)nc31)[C@H](O)[C@@H]2O [MRS5233]
recovery of LVDP throughout reperfusion vs control (isolated mouse hearts; 1 nM): did not; also recorded: trend in improving LVDP over control | recovery of rates of relaxation and contraction at 45 min reperfusion vs control (isolated mouse hearts; 1 nM): significantly better | recovery of LVDP throughout reperfusion vs control (isolated mouse hearts; 10 nM): significant improvement | recovery of rates of relaxation and contraction at 45 min reperfusion vs control (isolated mouse hearts; 10 nM): significantly better | functional recovery after 20 min ischemia/45 min reperfusion compared to control (isolated mouse hearts; 1 and 10 nM (MRS5246 in Figure 6 also 0.1 nM), infused 10 min before ischemia): improved functional recovery compared to control in a concentration-dependent manner; also recorded: effective at increasing functional recovery; also recorded: significant protection starting at one nanomolar | Ki (hA3AR): 0.0223 ± 0.0016 µM | Ki (hA2AAR): 2.44 ± 0.32 µM | inhibition of radioligand binding at hA1AR (hA1AR): 12 ± 4%
